How the values were obtained:
[1] = molecular target: T1, Dipeptidyl peptidase 4 (Homo sapiens, UniProt P27487)
[2] = molecular target: Dipeptidyl peptidase II and dipeptidyl peptidase IV (DPP2 and DPP4) (Homo sapiens) (UniProt P27487+Q9UHL4); assay: Selectivity index against Dipeptidyl Peptidase IV and Dipeptidyl Peptidase II inhibitory activities; format: protein assay
[3] = molecular target: T2, Dipeptidyl peptidase 2 (Homo sapiens, UniProt Q9UHL4); assay: Inhibitory activity against Dipeptidyl Peptidase II
[4] = molecular target: T2, Dipeptidyl peptidase 2
[5] = molecular target: T1, Dipeptidyl peptidase 4; remark: listed apart in the source

T1 sequence (P27487 whole entry): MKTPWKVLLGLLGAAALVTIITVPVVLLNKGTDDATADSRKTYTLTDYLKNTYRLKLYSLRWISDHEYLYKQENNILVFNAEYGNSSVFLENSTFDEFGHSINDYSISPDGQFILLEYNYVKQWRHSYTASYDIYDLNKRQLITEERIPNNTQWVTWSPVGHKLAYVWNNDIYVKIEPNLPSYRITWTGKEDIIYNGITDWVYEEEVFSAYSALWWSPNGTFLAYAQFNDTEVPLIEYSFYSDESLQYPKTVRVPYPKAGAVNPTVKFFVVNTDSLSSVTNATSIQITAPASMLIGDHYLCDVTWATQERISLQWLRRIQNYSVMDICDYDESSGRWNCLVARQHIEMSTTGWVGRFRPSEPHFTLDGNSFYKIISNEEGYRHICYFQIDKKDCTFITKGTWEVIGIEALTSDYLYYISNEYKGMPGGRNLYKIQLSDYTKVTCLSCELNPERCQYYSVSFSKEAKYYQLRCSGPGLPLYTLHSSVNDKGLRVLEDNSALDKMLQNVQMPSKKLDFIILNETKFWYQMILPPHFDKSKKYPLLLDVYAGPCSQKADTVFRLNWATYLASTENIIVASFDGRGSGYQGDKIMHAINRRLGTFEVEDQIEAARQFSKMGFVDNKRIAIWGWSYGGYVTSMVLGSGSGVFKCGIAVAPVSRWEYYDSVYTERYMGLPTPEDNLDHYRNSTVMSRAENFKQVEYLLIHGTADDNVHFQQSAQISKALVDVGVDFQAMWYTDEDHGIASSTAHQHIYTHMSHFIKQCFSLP

Structure (SMILES)	IC50 [1]	further results
S=C(C1CCCN1)N1CCCC1 (configuration not stated)	> 500 µM	
NC(Cc1c[nH]cn1)C(=O)N1CCCC1 (configuration not stated)	23.2 µM	
N[C@@H](CC(=O)O)C(=O)N1CCCC1	122 µM	
NCCCC(N)C(=O)N1CCCCC1 (configuration not stated)	> 500 µM	SI [2]: > 1110
NC(CO)C(=O)N1CCCC1 (configuration not stated)	190 µM	
NC(=O)CC(N)C(=O)N1CCCC1 (configuration not stated)	188 µM	
C[C@H](N)C(=O)N1CCCC1	41 µM	
C[C@H](N)C(=O)N1CCC[C@H]1C#N		IC50 [3]: 110 µM
NC(Cc1ccc(O)cc1)C(=O)N1CCCC1 (configuration not stated)	14 µM	
C[C@H](N)C(=S)N1CCSC1		Ki [4]: 0.277 µM; Ki [5]: 7.88 µM
NC(Cc1ccccc1)C(=O)N1CCCC1 (configuration not stated)	21 µM	
NC(Cc1c[nH]cn1)C(=O)N1CCCCC1 (configuration not stated)	213 µM	
N[C@@H](CC1CCCCC1)C(=O)N1CCCCC1	217 µM	
NCCCCC(N)C(=O)N1CCCC1 (configuration not stated)	39 µM	
NCCCCC(N)C(=O)N1CCCCC1 (configuration not stated)	247 µM	SI [2]: 154
NC[C@H](N)C(=O)N1CCCCC1	> 1000 µM	
NCC(=O)N1CCCC1	> 1000 µM	
NCCCCC(NC(=O)OCc1ccccc1)C(=O)N1CCCCC1 (configuration not stated)	135 µM	SI [2]: 64
CCC(C)C(N)C(=O)N1CCCCC1 (configuration not stated)	67 µM	
NCC[C@H](N)C(=O)N1CCCCC1	> 1000 µM	SI [2]: > 7590
C[C@H](N)C(=S)N1CCCC1		Ki [4]: 1.43 µM; Ki [5]: 47.6 µM

Source: ChEMBL document CHEMBL1135386, “Development of potent and selective dipeptidyl peptidase II inhibitors” (Bioorg Med Chem Lett, 2002)
